Test results as given in PubChem BioAssay AID1963841 (Molecular Pharmacology Branch, DTP, NCI, 2024).

Tested on: 439559-082-T-J2-PDC spheroid viability
Assay: Anticancer human tumor 439559-082-T-J2-PDC patient-derived colon adenocarcinoma cell line growth inhibition [POLQ]
Settings: spheroids with HUVEC and MSC; for IC50: curve of first compound; for viability, T/C: stronger effect = lower value
Outline: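 Patient-derived tumour cells were co-cultured with HUVEC and mesenchymal stem cells as multicellular spheroids at 37 °C. They were treated with POLQ inhibitors (novobiocin, ART-558, RP6685) alone or combined with other agents. Top concentrations were at or near clinical Cmax (otherwise 10 microM; SN-38 at 1 microM), decreasing in half-log steps.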

[1] = second compound 0.0316 µM, first compound 0.0316 µM
[2] = second compound 0.0316 µM, first compound 0.1 µM
[3] = second compound 0.0316 µM, first compound 0.316 µM
[4] = second compound 0.0316 µM, first compound 1 µM
[5] = second compound 0.1 µM, first compound 0.0316 µM
[6] = second compound 0.1 µM, first compound 0.1 µM
[7] = second compound 0.1 µM, first compound 0.316 µM
[8] = second compound 0.1 µM, first compound 1 µM
[9] = second compound 0.316 µM, first compound 0.0316 µM
[10] = second compound 0.316 µM, first compound 0.1 µM
[11] = second compound 0.316 µM, first compound 0.316 µM
[12] = second compound 0.316 µM, first compound 1 µM
[13] = second compound 1 µM, first compound 0.0316 µM
[14] = second compound 1 µM, first compound 0.1 µM
[15] = second compound 1 µM, first compound 0.316 µM
[16] = second compound 1 µM, first compound 1 µM
[17] = second compound 3.16 µM, first compound 0.0316 µM
[18] = second compound 3.16 µM, first compound 0.1 µM
[19] = second compound 3.16 µM, first compound 0.316 µM
[20] = second compound 3.16 µM, first compound 1 µM
[21] = second compound 10 µM, first compound 0.0316 µM
[22] = second compound 10 µM, first compound 0.1 µM
[23] = second compound 10 µM, first compound 0.316 µM
[24] = second compound 10 µM, first compound 1 µM
[25] = second compound 0.0316 µM, first compound 3.16 µM
[26] = second compound 0.0316 µM, first compound 10 µM
[27] = second compound 0.1 µM, first compound 3.16 µM
[28] = second compound 0.1 µM, first compound 10 µM
[29] = second compound 0.316 µM, first compound 3.16 µM
[30] = second compound 0.316 µM, first compound 10 µM
[31] = second compound 1 µM, first compound 3.16 µM
[32] = second compound 1 µM, first compound 10 µM
[33] = second compound 3.16 µM, first compound 3.16 µM
[34] = second compound 3.16 µM, first compound 10 µM
[35] = second compound 10 µM, first compound 3.16 µM
[36] = second compound 10 µM, first compound 10 µM
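Also: spheroids exposed to compounds for seven days before readout.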
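For viability, T/C in this document: 100% = DMSO vehicle control viability.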

`C=CCn1c(=O)c2cnc(Nc3ccc(N4CCN(C)CC4)cc3)nc2n1-c1cccc(C(C)(C)O)n1` + Nc1ccc(C#CCN(C(=O)Cc2ncc(C(F)(F)F)cc2C(F)(F)F)c2ccc(F)cc2)nn1 was tested, and the IC50 (second compound 0.0316 µM) was greater than 1 µM, the IC50 (second compound 0.1 µM) was greater than 1 µM and the IC50 (second compound 0.316 µM) was greater than 1 µM. For the same molecule, the IC50 (second compound 1 µM) was greater than 1 µM, the IC50 (second compound 3.16 µM) was greater than 1 µM and the IC50 (second compound 10 µM) was greater than 1 µM. It also gave a viability, T/C (second compound 0.0316 µM, first compound 0.00316 µM) of 111%, a viability, T/C (second compound 0.0316 µM, first compound 0.01 µM) of 109% and a viability, T/C [1] of 109%. For the same molecule, the viability, T/C [2] was 105%, the viability, T/C [3] was 97.5% and the viability, T/C [4] was 84.7%. The viability, T/C (second compound 0.1 µM, first compound 0.00316 µM) was 108%, the viability, T/C (second compound 0.1 µM, first compound 0.01 µM) was 94.4% and the viability, T/C [5] was 100%. It also gave a viability, T/C [6] of 95.5%, a viability, T/C [7] of 97.9% and a viability, T/C [8] of 78.6%. The viability, T/C (second compound 0.316 µM, first compound 0.00316 µM) was 108%, the viability, T/C (second compound 0.316 µM, first compound 0.01 µM) was 115% and the viability, T/C [9] was 97.3%. The viability, T/C [10] was 99.1%, the viability, T/C [11] was 97.5% and the viability, T/C [12] was 84%. For the same molecule, the viability, T/C (second compound 1 µM, first compound 0.00316 µM) was 105%, the viability, T/C (second compound 1 µM, first compound 0.01 µM) was 102% and the viability, T/C [13] was 98.4%. The viability, T/C [14] was 101%, the viability, T/C [15] was 103% and the viability, T/C [16] was 78.7%. It also gave a viability, T/C (second compound 3.16 µM, first compound 0.00316 µM) of 99.6%, a viability, T/C (second compound 3.16 µM, first compound 0.01 µM) of 107% and a viability, T/C [17] of 98.8%. The viability, T/C [18] was 99.4%, the viability, T/C [19] was 89.5% and the viability, T/C [20] was 79.3%. The viability, T/C (second compound 10 µM, first compound 0.00316 µM) was 105%, the viability, T/C (second compound 10 µM, first compound 0.01 µM) was 109% and the viability, T/C [21] was 103%. For the same molecule, the viability, T/C [22] was 105%, the viability, T/C [23] was 99.9% and the viability, T/C [24] was 71.2%.
For `O=C(Nc1ccc(O)c(NS(=O)(=O)c2ccc(F)cc2)c1)c1ccc(-c2ccccc2)cc1` + Cc1cccc(N(C)C(=O)C2C(O)CCN2c2nc(C)cc(C(F)(F)F)c2C#N)c1, the IC50 (second compound 0.0316 µM) was greater than 10 µM, the IC50 (second compound 0.1 µM) was greater than 10 µM and the IC50 (second compound 0.316 µM) was greater than 10 µM. For the same molecule, the IC50 (second compound 1 µM) was greater than 10 µM, the IC50 (second compound 3.16 µM) was greater than 10 µM and the IC50 (second compound 10 µM) was greater than 10 µM. For the same molecule, the viability, T/C [1] was 92%, the viability, T/C [2] was 119% and the viability, T/C [3] was 86.7%. For the same molecule, the viability, T/C [4] was 97.3%, the viability, T/C [25] was 103% and the viability, T/C [26] was 102%. The viability, T/C [5] was 101%, the viability, T/C [6] was 106% and the viability, T/C [7] was 100%. It also gave a viability, T/C [8] of 98.6%, a viability, T/C [27] of 107% and a viability, T/C [28] of 99.8%. It also gave a viability, T/C [9] of 101%, a viability, T/C [10] of 108% and a viability, T/C [11] of 92.4%. It also gave a viability, T/C [12] of 96.7%, a viability, T/C [29] of 105% and a viability, T/C [30] of 118%. It also gave a viability, T/C [13] of 96.6%, a viability, T/C [14] of 93.6% and a viability, T/C [15] of 98.4%. The viability, T/C [16] was 97.7%, the viability, T/C [31] was 101% and the viability, T/C [32] was 115%. It also gave a viability, T/C [17] of 98.1%, a viability, T/C [18] of 93.7% and a viability, T/C [19] of 85.7%. It also gave a viability, T/C [20] of 104%, a viability, T/C [33] of 109% and a viability, T/C [34] of 99%. It also gave a viability, T/C [21] of 97.8%, a viability, T/C [22] of 84.6% and a viability, T/C [23] of 107%. For the same molecule, the viability, T/C [24] was 86%, the viability, T/C [35] was 104% and the viability, T/C [36] was 109%.
With `CC(C)n1c(=O)n(C)c2cnc3cc(F)c(-c4ccc(OCCCN5CCCCC5)nc4)cc3c21` + Nc1ccc(C#CCN(C(=O)Cc2ncc(C(F)(F)F)cc2C(F)(F)F)c2ccc(F)cc2)nn1 the IC50 (second compound 0.0316 µM) was greater than 10 µM, the IC50 (second compound 0.1 µM) was greater than 10 µM and the IC50 (second compound 0.316 µM) was greater than 10 µM. The IC50 (second compound 1 µM) was greater than 10 µM, the IC50 (second compound 3.16 µM) was greater than 10 µM and the IC50 (second compound 10 µM) was greater than 10 µM. It also gave a viability, T/C [1] of 88.2%, a viability, T/C [2] of 110% and a viability, T/C [3] of 113%. It also gave a viability, T/C [4] of 105%, a viability, T/C [25] of 110% and a viability, T/C [26] of 96.7%. It also gave a viability, T/C [5] of 106%, a viability, T/C [6] of 113% and a viability, T/C [7] of 104%. For the same molecule, the viability, T/C [8] was 122%, the viability, T/C [27] was 102% and the viability, T/C [28] was 112%. For the same molecule, the viability, T/C [9] was 103%, the viability, T/C [10] was 100% and the viability, T/C [11] was 102%. It also gave a viability, T/C [12] of 109%, a viability, T/C [29] of 110% and a viability, T/C [30] of 105%. It also gave a viability, T/C [13] of 111%, a viability, T/C [14] of 99.7% and a viability, T/C [15] of 101%. It also gave a viability, T/C [16] of 116%, a viability, T/C [31] of 89.3% and a viability, T/C [32] of 113%. The viability, T/C [17] was 98.1%, the viability, T/C [18] was 103% and the viability, T/C [19] was 101%. It also gave a viability, T/C [20] of 115%, a viability, T/C [33] of 102% and a viability, T/C [34] of 126%. It also gave a viability, T/C [21] of 102%, a viability, T/C [22] of 102% and a viability, T/C [23] of 110%. It also gave a viability, T/C [24] of 96.7%, a viability, T/C [35] of 127% and a viability, T/C [36] of 117%.
